Target: P. falciparum apicoplast DNA polymerase (Pf-apPOL) (Plasmodium falciparum, UniProt Q8ILY1)
Experiment: Fluorescence-based high-throughput DNA polymerase assay (molecular beacon), primary screen and dose-response
Format: biochemical
Conditions: for DNA Pol: 90 min, 10 µM; for % inhibition apPOL 180' 2.5 / % inhibition apPOL 180' 5 / % inhibition apPOL 180' 10 / % inhibition apPOL 180' 20 / % inhibition apPOL 180' 40 / % inhibition apPOL 180' 80: read at 180'
How it was run: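 Single-point screening used 10 µM compound with 20 nM polymerase, 20 nM hairpin substrate and 6 µM dNTPs for 90 min at 25 °C. Confirmatory titrations (2.5–80 µM) followed fluorescence at three times, and IC50 was derived from a fit including a cooperativity term n.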

P. falciparum apicoplast DNA polymerase (Pf-apPOL), sequence (Q8ILY1 entry or part of it): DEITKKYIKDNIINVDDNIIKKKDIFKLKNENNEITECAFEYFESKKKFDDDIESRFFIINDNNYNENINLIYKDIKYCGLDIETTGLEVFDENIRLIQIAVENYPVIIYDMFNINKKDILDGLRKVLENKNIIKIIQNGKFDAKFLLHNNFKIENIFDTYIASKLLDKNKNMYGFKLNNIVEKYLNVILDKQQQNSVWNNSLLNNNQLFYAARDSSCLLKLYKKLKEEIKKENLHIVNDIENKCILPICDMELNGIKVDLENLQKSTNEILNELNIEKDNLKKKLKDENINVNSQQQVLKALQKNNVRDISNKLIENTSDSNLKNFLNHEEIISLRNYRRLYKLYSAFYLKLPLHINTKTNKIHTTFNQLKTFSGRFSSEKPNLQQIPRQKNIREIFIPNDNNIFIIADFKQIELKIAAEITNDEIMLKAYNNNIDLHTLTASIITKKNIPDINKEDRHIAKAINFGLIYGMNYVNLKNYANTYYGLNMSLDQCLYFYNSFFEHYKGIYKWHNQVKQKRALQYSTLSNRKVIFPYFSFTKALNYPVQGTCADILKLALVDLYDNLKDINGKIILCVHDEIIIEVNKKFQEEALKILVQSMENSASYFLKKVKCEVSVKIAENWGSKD

## CC(=O)OCC1=C(C(=O)[O-])N2C(=O)[C@@H](NC(=O)Cc3cccs3)[C@H]2SC1.[Na+] [Molecule 73, CC(=O)OCC1=C(C(=O)[O-])N2[C@H](SC1)[C@@H](C2=O)NC(=O)Cc1cccs1.[Na+]]
186 hits, DNA Pol (screen value), unit not given
  DNA Pol: 62
'DNA Pol' (screen value), unit not given
  DNA Pol: 62
DRC-1, read at 10', concentration 2.5
  % inhibition Apo pol 10' 2.5: 15.9246%
DRC-1, read at 10', concentration 5
  % inhibition Apo pol 10' 5: 24.2196%
DRC-1, read at 10', concentration 10
  % inhibition Apo pol 10' 10: 38.6298%
DRC-1, read at 10', concentration 20
  % inhibition Apo pol 10' 20: 52.9189%
DRC-1, read at 10', concentration 40
  % inhibition Apo pol 10' 40: 72.9017%
DRC-1, read at 10', concentration 80
  % inhibition Apo pol 10' 80: 83.4409%
DRC-1, read at 90', concentration 2.5
  % inhibition Apol 90' 2.5: -0.64%
DRC-1, read at 90', concentration 5
  % inhibition Apol 90' 5: -0.282%
DRC-1, read at 90', concentration 10
  % inhibition Apol 90' 10: 6.863%
DRC-1, read at 90', concentration 20
  % inhibition Apol 90' 20: 14.2955%
DRC-1, read at 90', concentration 40
  % inhibition Apol 90' 40: 36.8577%
DRC-1, read at 90', concentration 80
  % inhibition Apol 90' 80: 67.9349%
DRC-1, concentration 2.5
  % inhibition apPOL 180' 2.5: -8.644%
DRC-1, concentration 5
  % inhibition apPOL 180' 5: -9.547%
DRC-1, concentration 10
  % inhibition apPOL 180' 10: -4.869%
DRC-1, concentration 20
  % inhibition apPOL 180' 20: -0.1262%
DRC-1, concentration 40
  % inhibition apPOL 180' 40: 18.2499%
DRC-1, concentration 80
  % inhibition apPOL 180' 80: 56.6871%
DRC-2, concentration 2.5
  % inhibition Apol 40': 1.25%
  % inhibition ApPOL 90': 1.25%
  % inhibition apPOL 180' 2.5: -0.311%
DRC-2, concentration 20
  % inhibition Apol 40': 29%
  % inhibition apPOL 180' 20: 10%
DRC-2, concentration 40
  % inhibition apPOL 180': 29%
  % inhibition apPOL 180' 40: 29%
DRC-2, read at 5', concentration 2.5
  % inhibition Apo pol 5' 2.5: 3%
DRC-2, read at 5', concentration 5
  % inhibition Apo pol 5' 5: 6.34%
DRC-2, read at 5', concentration 10
  % inhibition Apo pol 5' 10: 22%
DRC-2, read at 5', concentration 20
  % inhibition Apo pol 5' 20: 36%
DRC-2, read at 5', concentration 40
  % inhibition Apo pol 5' 40: 43%
DRC-2, read at 5', concentration 80
  % inhibition Apo pol 5' 80: 50%
DRC-2, read at 40', concentration 2.5
  % inhibition Apol 40' 2.5: 1.25%
DRC-2, read at 40', concentration 5
  % inhibition Apol 40' 5: 2%
DRC-2, read at 40', concentration 10
  % inhibition Apol 40' 10: 13%
DRC-2, read at 40', concentration 20
  % inhibition Apol 40' 20: 29%
DRC-2, read at 40', concentration 40
  % inhibition Apol 40' 40: 45%
DRC-2, read at 40', concentration 80
  % inhibition Apol 40' 80: 62%
DRC-2, read at 90', concentration 2.5
  % inhibition ApPOL 90' 2.5: 1.25%
DRC-2, read at 90', concentration 5
  % inhibition ApPOL 90' 5: -1.85%
DRC-2, read at 90', concentration 10
  % inhibition ApPOL 90' 10: 5%
DRC-2, read at 90', concentration 20
  % inhibition ApPOL 90' 20: 20%
DRC-2, read at 90', concentration 40
  % inhibition ApPOL 90' 40: 39%
DRC-2, read at 90', concentration 80
  % inhibition ApPOL 90' 80: 63%
DRC-2, concentration 5
  % inhibition apPOL 180' 5: -7%
DRC-2, concentration 10
  % inhibition apPOL 180' 10: -2.83%
DRC-2, concentration 80
  % inhibition apPOL 180' 80: 60%

## Cc1nc(/N=N/c2ccc(C(=O)[O-])cc2)c(COP(=O)([O-])[O-])c(C=O)c1O.[Na+].[Na+].[Na+] [KU0261395]
'DNA Pol' of the 186 hits list (primary screen value)
  DNA Pol: 94
DNA Pol (primary screen value)
  DNA Pol: 94
DRC-1, concentration 2.5
  % inhibition Apo pol 10': 68.7077%
  % inhibition Apol 90': 38.1069%
  % inhibition apPOL 180': 26.3863%
DRC-1, concentration 5
  % inhibition Apo pol 10': 75.1682%
  % inhibition Apol 90': 43.9893%
  % inhibition apPOL 180': 31.3621%
DRC-1, concentration 10
  % inhibition Apo pol 10': 82.6072%
  % inhibition Apol 90': 54.4878%
  % inhibition apPOL 180': 42.4654%
DRC-1, concentration 20
  % inhibition Apo pol 10': 83.4638%
  % inhibition Apol 90': 58.7781%
  % inhibition apPOL 180': 47.0791%
DRC-1, concentration 40
  % inhibition Apo pol 10': 87.7541%
  % inhibition Apol 90': 68.7531%
  % inhibition apPOL 180': 59.2191%
DRC-1, concentration 80
  % inhibition Apo pol 10': 88.013%
  % inhibition Apol 90': 75.4152%
  % inhibition apPOL 180': 68.3493%
DRC-2, concentration 2.5
  % inhibition Apo pol 5': 42%
  % inhibition Apol 40': 33%
  % inhibition ApPOL 90': 29%
  % inhibition apPOL 180': 20%
DRC-2, concentration 5
  % inhibition Apo pol 5': 44%
  % inhibition Apol 40': 40%
  % inhibition ApPOL 90': 36%
  % inhibition apPOL 180': 26%
DRC-2, concentration 10
  % inhibition Apo pol 5': 53%
  % inhibition Apol 40': 51%
  % inhibition ApPOL 90': 48%
  % inhibition apPOL 180': 39%
DRC-2, concentration 20
  % inhibition Apo pol 5': 53%
  % inhibition Apol 40': 56%
  % inhibition ApPOL 90': 53%
  % inhibition apPOL 180': 48%
DRC-2, concentration 40
  % inhibition Apo pol 5': 54%
  % inhibition Apol 40': 61%
  % inhibition ApPOL 90': 60%
  % inhibition apPOL 180': 56%
DRC-2, concentration 80
  % inhibition Apo pol 5': 55%
  % inhibition Apol 40': 66%
  % inhibition ApPOL 90': 66%
  % inhibition apPOL 180': 66%

Source: publication PMC9090415, “Discovery of small molecule inhibitors of Plasmodium falciparum apicoplast DNA polymerase” (Journal of Enzyme Inhibition and Medicinal Chemistry, 2022)
